In article PMC6706627, “Mapping Interactions of Microbial Metabolites with Human G-Protein-Coupled Receptors” (Cell Host & Microbe, 2019) one finds EC50 data, which are given here for 14 molecules.

Where a SMILES comes first, the peptide text is derived from it. Bridges are numbered along the chain shown (N, C = ends). [ ]: non-standard residue; d: D form.

In one test the target is PTGIR (Homo sapiens, UniProt P43119). In words: cell-based. The arrangement: species or system recombinant GPCR reporter cell lines; PathHunter beta-arrestin recruitment (beta-galactosidase complementation), chemiluminescence, agonist mode, Eurofins DiscoverX.
PTGIR, sequence (P43119 whole entry): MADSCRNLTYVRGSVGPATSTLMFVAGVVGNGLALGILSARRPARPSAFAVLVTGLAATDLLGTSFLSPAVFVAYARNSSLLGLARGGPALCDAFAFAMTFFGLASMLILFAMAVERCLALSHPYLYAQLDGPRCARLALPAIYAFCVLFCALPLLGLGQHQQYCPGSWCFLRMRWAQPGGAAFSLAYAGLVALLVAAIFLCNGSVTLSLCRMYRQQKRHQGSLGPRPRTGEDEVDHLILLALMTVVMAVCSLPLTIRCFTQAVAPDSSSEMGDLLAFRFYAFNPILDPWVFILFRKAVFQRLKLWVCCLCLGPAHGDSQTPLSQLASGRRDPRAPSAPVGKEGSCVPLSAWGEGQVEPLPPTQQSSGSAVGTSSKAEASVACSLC
The target in test [1] is T1, GPR109B (Homo sapiens, UniProt P49019).
T1 construct: gene HCAR3
T1 sequence (P49019 whole entry): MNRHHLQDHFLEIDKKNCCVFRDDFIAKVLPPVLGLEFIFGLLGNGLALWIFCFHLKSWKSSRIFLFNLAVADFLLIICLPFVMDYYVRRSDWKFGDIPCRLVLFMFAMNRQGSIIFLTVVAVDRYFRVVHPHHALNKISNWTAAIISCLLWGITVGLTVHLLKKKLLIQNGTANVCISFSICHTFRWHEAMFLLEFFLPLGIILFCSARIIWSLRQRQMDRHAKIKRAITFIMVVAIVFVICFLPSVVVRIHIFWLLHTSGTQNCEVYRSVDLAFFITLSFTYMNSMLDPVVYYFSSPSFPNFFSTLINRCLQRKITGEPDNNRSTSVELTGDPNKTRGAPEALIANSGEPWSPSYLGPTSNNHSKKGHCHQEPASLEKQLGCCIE
The test is described as follows: PathHunter beta-arrestin recruitment assay, dose-response of the known agonist. It is filed as cell-based. From the text: PathHunter beta-arrestin recruitment assay, dose-response of the known agonist on GPR109B | This previously unknown GPR109B agonist elicited a similar GPCR response to 3-hydroxyoctanoic acid

The next test has as its target OXER1 (Homo sapiens, UniProt Q8TDS5). In words: cell-based. More on the design: species or system recombinant GPCR reporter cell lines; PathHunter beta-arrestin recruitment (beta-galactosidase complementation), chemiluminescence, agonist mode, Eurofins DiscoverX.
For another test, the target named is T2, EBI2 (Homo sapiens, UniProt P32249).
T2 construct: gene GPR183
T2 sequence (P32249 whole entry): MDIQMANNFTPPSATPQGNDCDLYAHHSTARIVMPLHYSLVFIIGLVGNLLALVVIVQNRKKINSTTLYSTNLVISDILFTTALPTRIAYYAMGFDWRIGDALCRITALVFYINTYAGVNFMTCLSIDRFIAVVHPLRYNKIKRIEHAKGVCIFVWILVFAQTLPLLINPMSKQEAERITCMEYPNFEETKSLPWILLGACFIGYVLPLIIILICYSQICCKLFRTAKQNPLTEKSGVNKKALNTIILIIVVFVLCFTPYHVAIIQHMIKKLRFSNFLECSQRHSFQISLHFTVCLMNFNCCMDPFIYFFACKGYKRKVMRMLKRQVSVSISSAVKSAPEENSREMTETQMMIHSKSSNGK
In words: cell-based. More on the design: species or system recombinant GPCR reporter cell lines; PathHunter beta-arrestin recruitment (beta-galactosidase complementation), chemiluminescence, agonist mode, Eurofins DiscoverX. The following applies: agonist; read-out: RC50 (the source's name).

Test [2] concerns the target T3, brain angiogenesis factor 1 (BAI1) receptor (Homo sapiens, UniProt O14514).
T3 construct: gene ADGRB1
In words: PathHunter beta-arrestin recruitment assay in a recombinant reporter cell line, dose-response. It is filed as cell-based.

Another test concerns the target T4, MRGPRX2 (Homo sapiens, UniProt Q96LB1).
T4 sequence (Q96LB1 1-330): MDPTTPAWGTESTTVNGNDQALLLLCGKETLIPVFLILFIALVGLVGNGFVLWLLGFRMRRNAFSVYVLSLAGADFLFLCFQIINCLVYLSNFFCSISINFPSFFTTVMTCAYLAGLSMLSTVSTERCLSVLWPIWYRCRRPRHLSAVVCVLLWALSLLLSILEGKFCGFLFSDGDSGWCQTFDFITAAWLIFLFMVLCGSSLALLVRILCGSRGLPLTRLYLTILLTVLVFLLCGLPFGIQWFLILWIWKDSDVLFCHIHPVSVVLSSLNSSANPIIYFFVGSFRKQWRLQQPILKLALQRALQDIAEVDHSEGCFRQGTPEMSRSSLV
In words: cell-based. The arrangement: species or system recombinant GPCR reporter cell lines; PathHunter beta-arrestin recruitment (beta-galactosidase complementation), chemiluminescence, agonist mode, Eurofins DiscoverX.

Another test has as its target FFAR1 (Homo sapiens, UniProt O14842). The test is described as follows: cell-based. More on the design: species or system recombinant GPCR reporter cell lines; PathHunter beta-arrestin recruitment (beta-galactosidase complementation), chemiluminescence, agonist mode, Eurofins DiscoverX.
The next test has as its target KISS1R (Homo sapiens, UniProt Q969F8). The test is described as follows: cell-based. More on the design: species or system recombinant GPCR reporter cell lines; PathHunter beta-arrestin recruitment (beta-galactosidase complementation), chemiluminescence, agonist mode, Eurofins DiscoverX.
The target in another test is T5, GPR119 (Homo sapiens, UniProt Q8TDV5).
T5 sequence (Q8TDV5 1-335): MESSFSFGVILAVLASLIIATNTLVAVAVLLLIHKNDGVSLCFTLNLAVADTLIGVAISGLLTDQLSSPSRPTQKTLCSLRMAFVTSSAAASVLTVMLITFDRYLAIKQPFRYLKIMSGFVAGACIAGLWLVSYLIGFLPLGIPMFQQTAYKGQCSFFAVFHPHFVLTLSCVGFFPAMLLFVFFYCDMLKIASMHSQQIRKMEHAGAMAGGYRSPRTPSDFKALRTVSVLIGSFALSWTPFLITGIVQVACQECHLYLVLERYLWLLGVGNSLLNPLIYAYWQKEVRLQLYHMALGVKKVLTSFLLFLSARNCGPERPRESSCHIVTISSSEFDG
In words: cell-based. More on the design: species or system recombinant GPCR reporter cell lines; PathHunter beta-arrestin recruitment (beta-galactosidase complementation), chemiluminescence, agonist mode, Eurofins DiscoverX.

The next test deals with T6, CRTH2 (Homo sapiens, UniProt Q9Y5Y4).
T6 construct: gene PTGDR2
T6 sequence (Q9Y5Y4 1-395): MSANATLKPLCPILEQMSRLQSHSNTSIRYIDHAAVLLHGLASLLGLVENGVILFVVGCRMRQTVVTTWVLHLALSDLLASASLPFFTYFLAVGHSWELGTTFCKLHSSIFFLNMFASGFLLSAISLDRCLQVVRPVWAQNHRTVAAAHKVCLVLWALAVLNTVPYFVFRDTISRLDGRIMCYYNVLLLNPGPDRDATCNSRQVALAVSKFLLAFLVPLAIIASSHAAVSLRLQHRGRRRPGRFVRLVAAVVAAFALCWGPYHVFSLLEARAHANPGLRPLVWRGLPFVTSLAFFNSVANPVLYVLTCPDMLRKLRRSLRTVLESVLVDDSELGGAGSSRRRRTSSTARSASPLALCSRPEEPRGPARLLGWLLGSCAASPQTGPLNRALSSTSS
In words: cell-based. More on the design: species or system recombinant GPCR reporter cell lines; PathHunter beta-arrestin recruitment (beta-galactosidase complementation), chemiluminescence, agonist mode, Eurofins DiscoverX.

Another test concerns the target T7, PTHR2 (Homo sapiens, UniProt P49190).
T7 construct: gene PTH2R
In words: cell-based. More on the design: species or system recombinant GPCR reporter cell lines; PathHunter beta-arrestin recruitment (beta-galactosidase complementation), chemiluminescence, agonist mode, Eurofins DiscoverX.

In test [3] the target is T8, urotensin 2 receptor (UTR2) (Homo sapiens, UniProt Q9UKP6).
T8 construct: gene UTS2R
T8 sequence (Q9UKP6 1-389): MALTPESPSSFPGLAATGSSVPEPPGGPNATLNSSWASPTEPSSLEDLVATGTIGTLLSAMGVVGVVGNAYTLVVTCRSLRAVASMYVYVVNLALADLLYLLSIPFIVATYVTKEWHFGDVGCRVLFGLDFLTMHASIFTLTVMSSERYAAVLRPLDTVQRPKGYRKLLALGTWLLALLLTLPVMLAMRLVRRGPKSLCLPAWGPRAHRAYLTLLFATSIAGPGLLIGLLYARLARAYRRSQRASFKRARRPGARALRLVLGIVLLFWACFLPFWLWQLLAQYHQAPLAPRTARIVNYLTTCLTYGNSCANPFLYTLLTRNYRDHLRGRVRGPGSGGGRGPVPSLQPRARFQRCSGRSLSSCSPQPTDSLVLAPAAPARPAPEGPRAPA
The test is described as follows: PathHunter beta-arrestin recruitment assay in a recombinant reporter cell line, dose-response. Format: cell-based.

Test [4] deals with T9, neuromedin receptor 1 (NMU1R) (Homo sapiens, UniProt Q9HB89).
T9 construct: gene NMUR1
T9 sequence (Q9HB89 1-426): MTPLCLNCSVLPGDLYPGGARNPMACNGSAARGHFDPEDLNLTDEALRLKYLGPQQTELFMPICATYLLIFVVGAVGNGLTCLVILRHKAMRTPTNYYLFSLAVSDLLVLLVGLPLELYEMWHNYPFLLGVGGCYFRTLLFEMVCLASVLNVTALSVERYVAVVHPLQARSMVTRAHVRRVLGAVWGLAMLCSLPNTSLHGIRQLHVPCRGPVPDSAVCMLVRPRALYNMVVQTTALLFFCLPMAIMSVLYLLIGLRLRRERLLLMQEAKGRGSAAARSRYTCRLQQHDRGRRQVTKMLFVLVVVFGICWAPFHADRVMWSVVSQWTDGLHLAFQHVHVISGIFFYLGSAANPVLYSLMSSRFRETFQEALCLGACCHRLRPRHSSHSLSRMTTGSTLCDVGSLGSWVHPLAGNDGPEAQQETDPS
Described as above. It is filed as cell-based.

The target of another test is HRH4 (Homo sapiens, UniProt Q9H3N8). The test is described as follows: PathHunter beta-arrestin recruitment assay in a recombinant reporter cell line, commercial standard, dose-response. It is filed as cell-based.
HRH4, sequence (Q9H3N8 whole entry): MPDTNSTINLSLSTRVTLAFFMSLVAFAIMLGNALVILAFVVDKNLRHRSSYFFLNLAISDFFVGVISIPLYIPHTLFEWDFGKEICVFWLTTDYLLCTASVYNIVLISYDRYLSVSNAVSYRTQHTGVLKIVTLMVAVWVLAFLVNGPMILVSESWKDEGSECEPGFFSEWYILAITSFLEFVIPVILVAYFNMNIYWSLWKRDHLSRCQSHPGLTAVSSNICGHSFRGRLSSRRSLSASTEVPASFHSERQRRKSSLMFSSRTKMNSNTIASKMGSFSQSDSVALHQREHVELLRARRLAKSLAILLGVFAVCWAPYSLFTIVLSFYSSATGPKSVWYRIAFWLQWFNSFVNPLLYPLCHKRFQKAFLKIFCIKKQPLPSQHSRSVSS
The target of test [5] is T1, GPR109B. The test is described as follows: PathHunter beta-arrestin recruitment assay in a recombinant reporter cell line, dose-response. Format: cell-based.

FFAR1, sequence (O14842 whole entry): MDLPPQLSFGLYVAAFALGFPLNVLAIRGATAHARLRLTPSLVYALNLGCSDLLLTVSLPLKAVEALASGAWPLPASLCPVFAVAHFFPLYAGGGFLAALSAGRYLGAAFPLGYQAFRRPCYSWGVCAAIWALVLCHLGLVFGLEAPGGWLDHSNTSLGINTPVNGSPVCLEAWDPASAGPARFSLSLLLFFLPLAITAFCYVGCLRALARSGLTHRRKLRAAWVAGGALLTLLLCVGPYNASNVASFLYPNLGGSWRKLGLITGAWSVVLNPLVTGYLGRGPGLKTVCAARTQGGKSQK
T3 sequence (O14514 31-1584): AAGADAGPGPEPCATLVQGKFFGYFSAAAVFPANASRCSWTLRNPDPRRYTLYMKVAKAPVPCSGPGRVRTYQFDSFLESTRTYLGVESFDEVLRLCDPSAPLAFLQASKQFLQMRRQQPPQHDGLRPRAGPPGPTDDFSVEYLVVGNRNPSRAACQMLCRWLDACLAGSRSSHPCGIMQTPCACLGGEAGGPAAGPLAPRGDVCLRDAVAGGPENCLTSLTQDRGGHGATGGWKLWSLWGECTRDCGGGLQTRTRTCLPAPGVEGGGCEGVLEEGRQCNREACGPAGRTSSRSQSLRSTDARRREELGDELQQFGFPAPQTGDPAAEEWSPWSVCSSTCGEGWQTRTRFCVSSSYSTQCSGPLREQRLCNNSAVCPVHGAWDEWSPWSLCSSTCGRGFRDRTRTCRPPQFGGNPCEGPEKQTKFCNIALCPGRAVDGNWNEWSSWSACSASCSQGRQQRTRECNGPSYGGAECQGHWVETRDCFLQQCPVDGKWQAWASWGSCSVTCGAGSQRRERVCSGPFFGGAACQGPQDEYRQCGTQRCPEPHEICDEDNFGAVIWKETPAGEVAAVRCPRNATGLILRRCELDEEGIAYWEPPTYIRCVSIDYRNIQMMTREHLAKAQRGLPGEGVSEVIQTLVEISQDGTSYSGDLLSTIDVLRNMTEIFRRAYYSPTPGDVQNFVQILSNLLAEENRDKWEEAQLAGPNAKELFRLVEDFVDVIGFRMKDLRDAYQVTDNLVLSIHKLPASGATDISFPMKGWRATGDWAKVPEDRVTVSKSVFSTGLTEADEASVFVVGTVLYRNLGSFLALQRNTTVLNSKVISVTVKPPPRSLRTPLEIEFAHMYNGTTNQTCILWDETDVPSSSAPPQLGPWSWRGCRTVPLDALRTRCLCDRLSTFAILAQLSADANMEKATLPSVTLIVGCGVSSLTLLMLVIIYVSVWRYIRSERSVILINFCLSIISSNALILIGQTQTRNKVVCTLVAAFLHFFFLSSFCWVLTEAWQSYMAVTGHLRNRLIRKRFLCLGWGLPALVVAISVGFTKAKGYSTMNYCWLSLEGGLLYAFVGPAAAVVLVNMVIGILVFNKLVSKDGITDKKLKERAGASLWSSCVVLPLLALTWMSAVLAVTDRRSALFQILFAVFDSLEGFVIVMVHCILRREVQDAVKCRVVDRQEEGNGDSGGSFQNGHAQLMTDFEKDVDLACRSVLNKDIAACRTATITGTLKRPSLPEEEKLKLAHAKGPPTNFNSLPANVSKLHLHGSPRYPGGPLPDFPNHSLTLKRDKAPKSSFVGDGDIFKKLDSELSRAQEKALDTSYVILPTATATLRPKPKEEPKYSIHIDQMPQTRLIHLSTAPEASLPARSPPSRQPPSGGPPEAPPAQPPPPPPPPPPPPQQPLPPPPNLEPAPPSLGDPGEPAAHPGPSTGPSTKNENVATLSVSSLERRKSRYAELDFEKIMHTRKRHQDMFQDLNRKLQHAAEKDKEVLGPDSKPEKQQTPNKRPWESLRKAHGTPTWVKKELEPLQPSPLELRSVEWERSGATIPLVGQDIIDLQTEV
OXER1, sequence (Q8TDS5 whole entry): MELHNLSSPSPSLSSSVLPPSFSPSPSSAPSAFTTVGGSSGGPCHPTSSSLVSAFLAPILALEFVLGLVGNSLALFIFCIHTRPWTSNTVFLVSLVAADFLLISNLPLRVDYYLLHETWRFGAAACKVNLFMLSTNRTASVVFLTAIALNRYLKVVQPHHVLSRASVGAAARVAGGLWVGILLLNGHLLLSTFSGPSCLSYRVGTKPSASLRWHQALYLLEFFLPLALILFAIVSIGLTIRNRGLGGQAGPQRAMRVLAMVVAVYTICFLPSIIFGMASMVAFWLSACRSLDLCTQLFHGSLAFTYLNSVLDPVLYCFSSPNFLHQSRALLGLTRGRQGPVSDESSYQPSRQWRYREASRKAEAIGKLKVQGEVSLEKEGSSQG
T7 sequence (P49190 whole entry): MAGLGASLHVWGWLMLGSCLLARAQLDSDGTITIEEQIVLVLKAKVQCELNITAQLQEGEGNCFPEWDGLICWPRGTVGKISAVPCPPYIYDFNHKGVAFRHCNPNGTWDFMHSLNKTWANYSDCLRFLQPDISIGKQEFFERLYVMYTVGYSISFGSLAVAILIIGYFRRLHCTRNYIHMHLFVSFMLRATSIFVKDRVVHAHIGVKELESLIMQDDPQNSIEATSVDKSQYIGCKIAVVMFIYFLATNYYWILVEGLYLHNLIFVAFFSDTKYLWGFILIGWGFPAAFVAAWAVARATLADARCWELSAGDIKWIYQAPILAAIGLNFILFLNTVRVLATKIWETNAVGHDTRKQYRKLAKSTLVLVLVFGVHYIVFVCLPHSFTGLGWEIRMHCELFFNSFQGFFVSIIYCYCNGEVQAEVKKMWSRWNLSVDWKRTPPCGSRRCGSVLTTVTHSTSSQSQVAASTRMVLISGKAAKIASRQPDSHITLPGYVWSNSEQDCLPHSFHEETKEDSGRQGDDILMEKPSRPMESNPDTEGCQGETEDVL
KISS1R, sequence (Q969F8 whole entry): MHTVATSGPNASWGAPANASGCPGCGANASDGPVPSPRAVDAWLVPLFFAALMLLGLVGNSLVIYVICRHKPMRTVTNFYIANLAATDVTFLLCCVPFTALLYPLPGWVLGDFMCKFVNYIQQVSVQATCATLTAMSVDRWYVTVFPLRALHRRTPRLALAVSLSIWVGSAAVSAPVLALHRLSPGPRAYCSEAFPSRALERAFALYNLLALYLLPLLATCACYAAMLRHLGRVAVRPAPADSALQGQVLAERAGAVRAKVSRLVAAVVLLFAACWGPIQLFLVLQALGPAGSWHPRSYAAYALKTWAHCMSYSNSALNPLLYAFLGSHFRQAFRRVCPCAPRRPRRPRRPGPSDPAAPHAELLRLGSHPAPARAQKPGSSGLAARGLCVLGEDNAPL

Consider `CC#CCC(C)[C@H](O)/C=C/[C@@H]1[C@H]2c3cccc(CCCC(=O)O)c3O[C@H]2C[C@H]1O` (mixture of isomers) [Beraprost], for which, at PTGIR, the EC50 is 311 nM. Molecule `CCCCCC(O)CC(=O)O` (stereo not drawn) [3-hydroxyoctanoic acid] yielded an EC50 at GPR109B [1] of 304000 nM.

Take `CCCCC/C=C\C/C=C\C/C=C\C=C\C(=O)CCCC(=O)O` [5-OxoETE]: the EC50 at OXER1 turned out to be 693 nM. Turning to `C[C@H](CCCC(C)(C)O)[C@H]1CC[C@H]2[C@@H]3[C@H](O)C=C4C[C@@H](O)CC[C@]4(C)[C@H]3CC[C@]12C` [7a,25-Dihydroxycholesterol], at EBI2, the EC50 was 191 nM. For `CCCCCCC1CC1CCCCCCCC(=O)O` (stereo not drawn) [9,10-methylenehexadecanoic acid, cis-9,10-methylenehexadecanoic acid], in test [2], the EC50 was 11000 nM. On to `C[C@@H](O)[C@@H]1NC(=O)[C@@H](CCCCN)NC(=O)[C@H](Cc2c[nH]c3ccccc23)NC(=O)[C@H](Cc2ccccc2)NC(=O)[C@H](Cc2ccccc2)NC(=O)[C@H](CC(N)=O)NC(=O)[C@H](CCCCN)NC(=O)[C@@H](NC(=O)[C@@H]2CCCN2)CSSC[C@@H](C(=O)N[C@@H](CCCCN)C(=O)O)NC(=O)[C@H](CO)NC(=O)[C@H](CO)NC(=O)[C@@H](Cc2ccccc2)NC1=O` [Cortistatin 14] (H-PCKNFFW[dK]T[dF]SSCK-OH; disulfide 2-13), for which the EC50 at MRGPRX2 turned out to be 635 nM. In the case of `O=C(O)CCc1ccc(NCc2cccc(Oc3ccccc3)c2)cc1` [GW9508], on FFAR1, the EC50 was determined as 288 nM.

On to `CC(C)C[C@H](NC(=O)CNC(=O)[C@H](Cc1ccccc1)NC(=O)[C@H](CO)NC(=O)[C@H](CC(N)=O)NC(=O)[C@H](Cc1c[nH]c2ccccc12)NC(=O)[C@H](CC(N)=O)NC(=O)[C@@H](N)Cc1ccc(O)cc1)C(=O)N[C@@H](CCCNC(=N)N)C(=O)N[C@@H](Cc1ccccc1)C(N)=O` [Kisspeptin-10], for which the EC50 at KISS1R came out at 11.7 nM. `CCCCCCCC/C=C\CCCCCCCC(=O)NCCO` [Oleoyl Ethanolamide]: the EC50 at GPR119 amounted to 1740 nM. For the molecule `CCCCC[C@H](O)/C=C/[C@H]1C(=O)C[C@H](O)[C@@H]1C/C=C\CCCC(=O)O` [PGD2], the EC50 on CRTH2 was determined as 19.3 nM. With `CCCCC#CCCCCCCCC(=O)OC` [TIP-39], the EC50 at PTHR2 came out at 0.849 nM. Consider `CCC(C)CCCCCCCCCCC(=O)O` (stereo not drawn) [aiC15:0, 12-methyltetradecanoic acid], for which the values for the EC50 in test [3] and in test [4] were 191000 nM and 125000 nM, respectively.

For `NCCCCCN` [cadaverine], the EC50 on HRH4 is 1100 nM.

With `O=C(O)CCc1ccccc1` [phenylpropanoic acid], the EC50 on GPR109B [5] came to 208000 nM.
